The values below come from ChEMBL document CHEMBL1138233, “New iantherans from the marine sponge Ianthella quadrangulata: novel agonists of the P2Y(11) receptor” (J Med Chem, 2007).

One data set addresses T1, P2Y purinoceptor 11 (Homo sapiens, UniProt Q96G91).
T1 sequence (Q96G91 whole entry): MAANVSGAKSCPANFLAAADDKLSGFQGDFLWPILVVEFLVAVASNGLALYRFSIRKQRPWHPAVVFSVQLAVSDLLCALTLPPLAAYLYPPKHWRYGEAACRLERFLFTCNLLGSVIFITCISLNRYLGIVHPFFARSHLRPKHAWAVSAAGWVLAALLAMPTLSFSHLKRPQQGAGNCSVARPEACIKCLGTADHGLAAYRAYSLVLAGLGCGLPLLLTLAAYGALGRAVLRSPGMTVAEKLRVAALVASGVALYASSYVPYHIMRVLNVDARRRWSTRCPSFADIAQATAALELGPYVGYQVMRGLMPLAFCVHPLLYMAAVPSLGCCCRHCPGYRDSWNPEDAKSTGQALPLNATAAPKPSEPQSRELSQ
The experiment in a line: Agonist activity at P2Y11 receptor expressed in 1321N1 cells assessed as cytosolic calcium level. The class given is functional, cell-based.

Data set [1] is described as follows: Toxicity against 1321N1 cells expressing P2Y11 receptor at 1 to 10 uM. The data set is classed as cell-based. The conditions noted are these: human, 1321-n1, 10 µM.
A short description of data set [2]: Toxicity against 1321N1 cells expressing P2Y2 receptor at 1 to 10 uM. The note with it: human, 1321-n1, 10 µM. The class given is cell-based.
Data set [3] deals with T2, P2Y purinoceptor 11 (Homo sapiens) (UniProt Q96G91).
T2 sequence (whole entry): T1 sequence (Q96G91 whole entry)
In words: Agonist activity at P2Y11 receptor expressed in 1321N1 cells assessed as cytosolic calcium level at 10 uM relative to GTPgammaS control. The class given is functional, cell-based.

Data set [4] deals with T3, P2Y purinoceptor 2 (Homo sapiens, UniProt P41231). The experiment in a line: Agonist activity at P2Y2 receptor expressed in 1321N1 cells assessed as cytosolic calcium level at 10 uM relative to GTPgammaS control. The data set is classed as functional, cell-based.
T3 sequence (P41231 whole entry): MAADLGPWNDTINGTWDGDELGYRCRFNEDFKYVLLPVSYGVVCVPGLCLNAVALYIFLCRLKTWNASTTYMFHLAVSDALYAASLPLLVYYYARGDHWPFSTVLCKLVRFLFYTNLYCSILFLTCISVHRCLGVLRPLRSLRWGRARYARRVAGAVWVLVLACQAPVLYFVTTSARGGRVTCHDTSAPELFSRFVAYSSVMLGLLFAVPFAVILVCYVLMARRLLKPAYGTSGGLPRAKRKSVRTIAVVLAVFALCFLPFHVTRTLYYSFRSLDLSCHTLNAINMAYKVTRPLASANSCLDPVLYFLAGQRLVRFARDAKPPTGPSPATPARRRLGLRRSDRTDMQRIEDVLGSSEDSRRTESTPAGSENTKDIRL
For data set [5], the target named is P2Y purinoceptor 1 (Homo sapiens) (UniProt P47900). In words: Agonist activity at P2Y1 receptor expressed in 1321N1 cells assessed as cytosolic calcium level at 10 uM relative to GTPgammaS control. The class given is functional, cell-based.
Sequence of P2Y purinoceptor 1 (Homo sapiens) (P47900 whole entry): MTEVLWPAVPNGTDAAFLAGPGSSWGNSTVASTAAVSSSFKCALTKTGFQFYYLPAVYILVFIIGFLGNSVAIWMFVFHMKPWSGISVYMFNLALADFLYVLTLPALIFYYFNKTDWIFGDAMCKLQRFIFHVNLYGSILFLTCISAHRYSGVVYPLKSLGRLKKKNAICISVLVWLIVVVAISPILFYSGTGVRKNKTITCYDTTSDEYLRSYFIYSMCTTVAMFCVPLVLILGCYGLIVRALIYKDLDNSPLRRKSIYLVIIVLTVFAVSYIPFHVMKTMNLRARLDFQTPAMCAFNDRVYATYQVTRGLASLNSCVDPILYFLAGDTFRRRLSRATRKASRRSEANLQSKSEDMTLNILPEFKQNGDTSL
The nature of data set [6]: Toxicity against 1321N1 cells expressing P2Y1 receptor at 1 to 10 uM. The conditions noted are these: human, 1321-n1, 10 µM. The class given is cell-based.
The target in data set [7] is T3, P2Y purinoceptor 2. In words: Agonist activity at P2Y2 receptor expressed in 1321N1 cells assessed as cytosolic calcium level at 1 uM relative to GTPgammaS control. The data set is classed as functional, cell-based.
Data set [8] addresses P2Y purinoceptor 1 (Homo sapiens) (UniProt P47900). The experiment in a line: Agonist activity at P2Y1 receptor expressed in 1321N1 cells assessed as cytosolic calcium level at 1 uM relative to GTPgammaS control. The data set is classed as functional, cell-based.
Data set [9] deals with T2, P2Y purinoceptor 11 (Homo sapiens). In words: Agonist activity at P2Y11 receptor expressed in 1321N1 cells assessed as cytosolic calcium level at 1 uM relative to GTPgammaS control. The class given is functional, cell-based.
Data set [10] shares this target. In words: Agonist activity at P2Y11 receptor expressed in 1321N1 cells assessed as calcium mobilization in presence of 10 uM NF340 at 1 uM. The data set is classed as functional, cell-based. A general note: Calcium assays in cells follow changes in intracellular calcium, usually with a dye or a luminescent sensor.
The target is the same in data set [11]. In words: Agonist activity at P2Y11 receptor expressed in 1321N1 cells assessed as calcium mobilization in presence of 10 uM NF340 at 3.6 uM. The class given is functional, cell-based.
For data set [12], the target named is T3, P2Y purinoceptor 2. In words: Agonist activity at P2Y2 receptor expressed in 1321N1 cells assessed as cytosolic calcium level. The class given is functional, cell-based.

Activity calls are given as the source filed them. The rule behind the calls is not given here.

The EC50 is the midpoint of the concentration-response curve. Take `Nc1ncnc2c1ncn2[C@@H]1O[C@H](CO[P@](=O)(O)O[P@](=O)(O)O[P@@](=O)(O)S)[C@@H](O)[C@H]1O`: on P2Y purinoceptor 11, the EC50 is 63.1 nM.
Take `COc1c(Br)cc(/C=C(\OS(=O)(=O)[O-])C(=O)O)cc1Br.[Na+]`: the Activity entry in [1] is “Non-toxic”; in data set [2] it was “Non-toxic”; in data set [3], below 37.5%; on P2Y purinoceptor 2 [4], below 37.5%; in data set [5], below 37.5%; in [6], “Non-toxic”.
`COc1c(Br)cc(CC(=O)O)cc1Br`: the Activity entry in data set [1] was “Non-toxic”; in data set [2] it was “Non-toxic”; in data set [3], below 37.5%; on P2Y purinoceptor 2 [4] it was below 37.5%; in [5], below 37.5%; in data set [6], “Non-toxic”.
For the molecule `O=C(O)c1c(-c2ccc(O)c(Br)c2)oc2c(Br)cc(/C=C(OS(=O)(=O)[O-])/C(=C/c3cc(Br)c4oc(-c5ccc(O)c(Br)c5)cc4c3)OS(=O)(=O)[O-])cc12.[Na+].[Na+]` [8-CARBOXY-ISO-IANTHERAN A], the Activity at P2Y purinoceptor 2 [7] was below 5%; in data set [1] it was “Non-toxic”; in data set [8], below 5%; in [2], “Non-toxic”; in data set [3], 114%; in data set [9], 94.6%. Further, the Activity on P2Y purinoceptor 2 [4] was below 5%; in data set [5] it was below 5%; in data set [6], “Non-toxic”. For the same molecule, the EC50 on P2Y purinoceptor 11 was 479 nM. In addition, the result in data set [10] was inactive.
On to `O=S(=O)([O-])OC(=C\c1cc(Br)c2oc(-c3ccc(O)c(Br)c3)cc2c1)/C(=C/c1cc(Br)c2oc(-c3ccc(O)c(Br)c3)cc2c1)OS(=O)(=O)[O-].[Na+].[Na+]` [ISO-IANTHERAN A], for which the Activity entry in data set [1], in data set [2] and in [6] was “Non-toxic” in each case. Moreover, the outcome in [11] was inactive. Besides, the result (in data set [3]; in data set [9]; on P2Y purinoceptor 2 [4]; in data set [5]) was Active. For the same molecule, the EC50 on P2Y purinoceptor 11 was 1290 nM.
As to `O=c1ccn([C@@H]2O[C@H](COP(=O)(O)OP(=O)(O)OP(=O)(O)O)[C@@H](O)[C@H]2O)c(=O)[nH]1` [URIDINE TRIPHOSPHATE], on P2Y purinoceptor 2 [12], the EC50 was 110 nM.
